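Briefly, cells in 96-well plates were exposed to five compound concentrations for 48 h, and endpoints were estimated by linear interpolation. TGI: total growth inhibition.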 *1 amine or outer side, *2 acyl side, *3 side chain or, on linkers, in order; H or OH if unused. Where a SMILES comes first, the peptide text is derived from it. [ ]: non-standard residue; d: D form. The star is where a group is joined. X41 = CCC(=O)CC1CC(C)CC(C(=O)[*:2])N1[*:1]; X40 = CCCCCCCCC(C)C(=O)*; Aib = CC(C)(N)C(=O)O; X42 = CC(CN(C)CCO)N*
How the values were obtained:
Assay in all cases: inhibition of tumour cell growth, NCI panel, 48 h
OVCAR-5 ovarian = test system: OVCAR-5 ovarian
HCC-2998 colon = test system: HCC-2998 colon
OVCAR-3 ovarian = test system: OVCAR-3 ovarian
K-562 leukemia = test system: K-562 leukemia
HCT-15 colon = test system: HCT-15 colon
COLO 205 colon = test system: COLO 205 colon
ACHN renal = test system: ACHN renal
SF-268 CNS = test system: SF-268 CNS
NCI/ADR-RES ovarian = test system: NCI/ADR-RES ovarian
A498 renal = test system: A498 renal
TK-10 renal = test system: TK-10 renal
HOP-92 NSCLC = test system: HOP-92 NSCLC
KM12 colon = test system: KM12 colon
DU-145 prostate = test system: DU-145 prostate
786-0 renal = test system: 786-0 renal
PC-3 prostate = test system: PC-3 prostate
NCI-H226 lung = test system: NCI-H226 lung
NCI-H23 lung = test system: NCI-H23 lung
BT-549 breast = test system: BT-549 breast
UACC-257 melanoma = test system: UACC-257 melanoma
OVCAR-4 ovarian = test system: OVCAR-4 ovarian
SNB-75 CNS = test system: SNB-75 CNS
M14 melanoma = test system: M14 melanoma
IGROV1 ovarian = test system: IGROV1 ovarian
UACC-62 melanoma = test system: UACC-62 melanoma
SK-MEL-2 melanoma = test system: SK-MEL-2 melanoma
SR leukemia = test system: SR leukemia
MDA-MB-231 breast = test system: MDA-MB-231 breast
T-47D breast = test system: T-47D breast
NCI-H522 lung = test system: NCI-H522 lung
SW-620 colon = test system: SW-620 colon
SN12C renal = test system: SN12C renal
OVCAR-8 ovarian = test system: OVCAR-8 ovarian
HT29 colon = test system: HT29 colon
SK-MEL-5 melanoma = test system: SK-MEL-5 melanoma
EKVX NSCLC = test system: EKVX NSCLC
MOLT-4 leukemia = test system: MOLT-4 leukemia
A549 NSCLC = test system: A549 NSCLC
MALME-3M melanoma = test system: MALME-3M melanoma
NCI-H460 lung = test system: NCI-H460 lung
HS 578T breast = test system: HS 578T breast
LOX IMVI melanoma = test system: LOX IMVI melanoma
SK-OV-3 ovarian = test system: SK-OV-3 ovarian
HOP-62 NSCLC = test system: HOP-62 NSCLC
SF-295 CNS = test system: SF-295 CNS

`Cc1ccc2c(O)c3c(cc2c1)C(=O)c1c2c(cc(O)c1C3=O)C1(C)OC(O2)C(O)C(N(C)C)C1O` (stereo not given) was tested, and the TGI (OVCAR-5 ovarian) was 3.73 µM, the TGI (HCC-2998 colon) was 2.34 µM and the TGI (OVCAR-3 ovarian) was 1.59 µM. For the same molecule, the TGI (K-562 leukemia) was 0.442 µM, the TGI (HCT-15 colon) was 2.44 µM and the TGI (COLO 205 colon) was 1.91 µM. It also gave a TGI (ACHN renal) of 1.88 µM, a TGI (SF-268 CNS) of 81 µM and a TGI (NCI/ADR-RES ovarian) of 2.42 µM. It also gave a TGI (A498 renal) of 2.37 µM, a TGI (TK-10 renal) of 3.1 µM and a TGI (HOP-92 NSCLC) of 2.22 µM. The TGI (KM12 colon) was 2.77 µM, the TGI (DU-145 prostate) was 2.23 µM and the TGI (786-0 renal) was 1.6 µM.
In the case of `CC(=O)OCC(=O)[C@@]1(O)CC[C@H]2[C@@H]3CCC4=CC(=O)C=C[C@]4(C)[C@@]3(F)[C@@H](O)C[C@@]21C`, the TGI (PC-3 prostate) was over 100 µM.
For `CCCCCCCCC(C)C(=O)N1CCCC1C(=O)N1C(CC(=O)CC)CC(C)CC1C(=O)NC(C)C(=O)NC(C)(C)C(=O)NC(C)(C)C(=O)NC(C(=O)NC(C)C(=O)NC(C)(C)C(=O)NC(C)(C)C(=O)NC(C)CN(C)CCO)C(C)CC` (stereo not given) (X40-P[X41]A[Aib][Aib]IA[Aib][Aib]-X42; configuration not given here), the TGI (NCI-H226 lung) was 1.22 µM, the TGI (NCI-H23 lung) was 1.05 µM and the TGI (BT-549 breast) was 6.63 µM. It also gave a TGI (UACC-257 melanoma) of 2.5 µM and a TGI (HOP-92 NSCLC) of 0.0435 µM.
For `c1ccc2c3nnc(c2c1)SCCSCCSc1nnc(c2ccccc12)SCCSCCS3`, the TGI (OVCAR-4 ovarian) was over 100 µM, the TGI (SNB-75 CNS) was over 100 µM and the TGI (M14 melanoma) was over 100 µM. The TGI (IGROV1 ovarian) was over 100 µM, the TGI (UACC-62 melanoma) was over 100 µM and the TGI (SK-MEL-2 melanoma) was over 100 µM. It also gave a TGI (SR leukemia) of over 100 µM, a TGI (OVCAR-3 ovarian) of over 100 µM and a TGI (HCT-15 colon) of over 100 µM. It also gave a TGI (PC-3 prostate) of over 100 µM, a TGI (COLO 205 colon) of over 100 µM and a TGI (MDA-MB-231 breast) of over 100 µM. The TGI (UACC-257 melanoma) was over 100 µM, the TGI (T-47D breast) was over 100 µM and the TGI (NCI-H522 lung) was over 100 µM. The TGI (ACHN renal) was over 100 µM, the TGI (SW-620 colon) was over 100 µM and the TGI (SN12C renal) was over 100 µM. The TGI (OVCAR-8 ovarian) was over 100 µM, the TGI (HT29 colon) was over 100 µM and the TGI (SF-268 CNS) was over 100 µM. For the same molecule, the TGI (SK-MEL-5 melanoma) was over 100 µM, the TGI (NCI/ADR-RES ovarian) was over 100 µM and the TGI (EKVX NSCLC) was over 100 µM. The TGI (MOLT-4 leukemia) was over 100 µM, the TGI (A549 NSCLC) was over 100 µM and the TGI (MALME-3M melanoma) was over 100 µM. It also gave a TGI (HOP-92 NSCLC) of over 100 µM, a TGI (NCI-H460 lung) of over 100 µM and a TGI (HS 578T breast) of over 100 µM. For the same molecule, the TGI (LOX IMVI melanoma) was over 100 µM, the TGI (SK-OV-3 ovarian) was over 100 µM and the TGI (HOP-62 NSCLC) was over 100 µM. It also gave a TGI (SF-295 CNS) of over 100 µM.

Source: PubChem BioAssay (NCI)
